In this test the test system is human engineered cardiac tissues (human iPSC derived cardiomyocytes co-cultured with human cardiac fibroblasts). Put plainly: Drug testing of engineered cardiac tissues in Biowire II 96-well plate under electrical pacing (contractile dynamics by wire displacement). As to conditions: day 19 tissues, n=2 (FIG. 7H). The class given is cell-based. How it is done:
To generate cardiac tissues, human iPSC derived cardiomyocytes co-cultured with human cardiac fibroblasts were seeded with hydrogel in the 96-well plate device. Tissue compaction in the first seven days was observed (FIG. 7A, FIG. 7B), with dramatic change in the first two days followed by stabilization after day 3. Electrical field stimulation of cardiac tissues was initiated at day 7 and continued for the additional 12 days. […] Thapsigargin (50×10^-6 m), an inhibitor of sarcoplasmic reticulum function in cardiomyocytes, was added in the presence of electrical pacing (1.5 Hz), resulting in a prolonged tissue contraction and relaxation time (FIG. 7H). […] Predominantly ventricular cardiomyocytes (CMs) were derived from the hiPSC line BJ1D, using monolayer differentiation protocols as previously described. At day 21 of differentiation, cardiomyocytes were disassociated into single cells with previously established methods. Briefly, 1 mg mL^-1 of collagenase type II (Worthington, LS004205) in Hank's Balanced Salt Solution was added to the monolayer cardiomyocyte cultures and incubated overnight at room temperature. The disassociated cells were mixed with cardiac fibroblasts (Lonza, NHCF-V) in a 10:1 cell number ratio. The mixed cells were pelleted and remixed in collagen hydrogel at 5.5×10^7 cells mL^-1. The cell-gel mixture was seeded at […] per microwell. A droplet of media was placed on the wall of the well to keep the moisture until gelation was complete. The plate was incubated at 37° C. and 5% CO2 for 10 min followed by media addition. […] Average tissue width and width of the tissue (Tw), attachment site to the polymer sensor were measured using bright field images at the relaxed state. Passive displacement of polymer sensors was assessed in blue channel. […] The final readouts for the total and passive forces were interpolated according to the Tw and custom tip sizes. […] With built-in force sensor and electrodes, tissues were able to be assessed in situ in terms of their contractile dynamics and drug responses. […] The videos were analyzed using the custom MATLAB software. […]

[1] abbreviates: 50×10^−6 m, electrical pacing 1.5 Hz, video 15 min after addition.

For the molecule `C/C=C(/C)C(=O)O[C@H]1C(C)=C2[C@H]([C@@H]1OC(=O)CCCCCCC)[C@@](C)(OC(C)=O)C[C@H](OC(=O)CCC)[C@@]1(O)[C@H]2OC(=O)[C@@]1(C)O` [Thapsigargin], under setting [1], the tissue contraction time entry was “prolonged” and the tissue relaxation time entry is “prolonged”. Further, the “frequency of tissue beating” value (thapsigargin 50 µM, constant stimulation frequency 1.5 Hz) is recorded as “decreased by half”.
